Data on two compounds can be found in patent EP3169154B1, “DILUENT FOR SEMEN PRESERVATION” (Politécnico Colombiano Jaime Isaza Cadavid, priority 2014, dated 2016).

The test system of assay [1] is semen ejaculates. In words: Inhibition of ROS production in semen ejaculates. Particulars: for inhibition at 20 µM: 20 µM in diluent of Example 1; for inhibition at 40 µM: 40 µM in diluent of Example 1; for inhibition at 50 µM: 50 µM in diluent of Example 1; for inhibition at 60 µM: 60 µM in diluent of Example 1; for inhibition at 80 µM: 80 µM in diluent of Example 1; for inhibition at 100 µM: 100 µM in diluent of Example 1. Type of assay: cell-based. On the procedure: (§1) Two diluents are prepared in accordance with Example 1, adding isoespintanol to one of them, and thymol to the other. In order to determine the cytoprotective (antioxidant) potential of each, the effects of adding different concentrations of these compounds to semen ejaculates were studied. The inhibition of ROS production and the reduction of lipid peroxidation were assessed, thereby determining the effective range as well as the maximum inhibitory concentration of thymol and isoespintanol (Tables 2 and 3). Table 2. Results of the inhibition of ROS production

Assay [2] concerns semen ejaculates. Kind of assay: Lipid peroxidation inhibition in semen ejaculates. Format: cell-based. Particulars: for inhibition at 20 µM: 20 µM in diluent of Example 1; for inhibition at 40 µM: 40 µM in diluent of Example 1; for inhibition at 50 µM: 50 µM in diluent of Example 1; for inhibition at 60 µM: 60 µM in diluent of Example 1; for inhibition at 80 µM: 80 µM in diluent of Example 1; for inhibition at 100 µM: 100 µM in diluent of Example 1. On the procedure: as §1

Assay [3] relates to carrageenan-induced foot inflammation. Particulars: some rodents; cited from earlier work.
The subject of the next assay is interleukin-1β. Particulars: cited from earlier work.

For the compound `COc1cc(C)c(OC)c(O)c1C(C)C` [isoespintanol, 2-isopropyl-3,6-dimethoxy-5-methylphenol], in the assay with semen ejaculates [1], testing at 20 µM gave an inhibition of 16%, the inhibition at 40 µM worked out at 24.2%, the inhibition at 50 µM is 34.5% and testing at 60 µM gave an inhibition of 16.9%. In the assay with semen ejaculates [1], this compound yielded an inhibition at 80 µM of 6.1% and an inhibition at 100 µM of 5.6%. In the assay on semen ejaculates [2], this compound displayed an inhibition at 20 µM of 21.1%, an inhibition at 40 µM of 29.9%, an inhibition at 50 µM of 29.4% and an inhibition at 60 µM of 51.1%. In addition, in the assay with semen ejaculates [2], 80 µM produced 42.1% inhibition and the inhibition at 100 µM was 29.8%. Further, the “reduction of carrageenan-induced foot inflammation” value in assay [3] is given as 43%. Besides, the “reduction of interleukin-1β production” value in the assay on interleukin-1β is listed as at most 72%.
For the compound `Cc1ccc(C(C)C)c(O)c1` [thymol, 2-isopropyl-5-methylphenol, reference compound], in the assay on semen ejaculates [1], the inhibition at 20 µM turned out to be 11.7%, the inhibition at 40 µM worked out at 12.3%, the inhibition at 50 µM was 51.2% and the inhibition at 60 µM was 26%. Besides, in the assay on semen ejaculates [1], the inhibition at 80 µM was found to be 21% and 100 µM produced 27.6% inhibition. Besides, in the assay with semen ejaculates [2], the inhibition at 20 µM was 48.1%, 40 µM produced 47.7% inhibition, the inhibition at 50 µM was found to be 40.8% and testing at 60 µM gave an inhibition of 36.6%. In the assay with semen ejaculates [2], the inhibition at 80 µM stood at 47% and 100 µM produced 28.3% inhibition.

The term inhibition denotes the relative decrease from the control value, in per cent. High values mean strong suppression, low ones little suppression.
